Assay results published in article PMC2674222 (Biochemistry, 2009).
Read-outs that look alike come from different tables or passages of the source. One block for each molecule: values may come before it.

Columns and labels:
[1] = target: T1, F159W-Leuko-PNP (Homo sapiens, UniProt P00491, F159W/W16Y/W178Y/W94Y); conditions: relative to native and Leuko-PNP (Table 2)
T1 sequence (P00491 1-289 W16Y/W94Y/F159W/W178Y): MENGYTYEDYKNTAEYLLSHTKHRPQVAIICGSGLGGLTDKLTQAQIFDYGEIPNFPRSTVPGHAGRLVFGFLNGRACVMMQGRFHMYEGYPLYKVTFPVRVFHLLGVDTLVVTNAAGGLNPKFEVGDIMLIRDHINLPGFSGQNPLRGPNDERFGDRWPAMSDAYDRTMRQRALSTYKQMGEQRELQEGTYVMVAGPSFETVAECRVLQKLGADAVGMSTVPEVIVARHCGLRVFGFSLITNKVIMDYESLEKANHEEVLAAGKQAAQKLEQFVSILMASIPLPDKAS

[2] = target: Leuko-PNP; conditions: read-out: Ki* (slow-onset tight binding constant); 50 mM KH2PO4, pH 7.4, 25 °C; cited from earlier work
[3] = target: Native PNP; conditions: read-out: Ki* (slow-onset tight binding constant); 50 mM KH2PO4, pH 7.4, 25 °C; cited from earlier work
[4] = target: T1, F159W-Leuko-PNP; assay: Fluorometric titration of hypoxanthine-free enzyme with ligands; format: binding; conditions: for Kd: pH 7.4, 25 °C
[5] = target: T2, F159W-Leuko-PNP-PO4 (Homo sapiens, UniProt P00491, F159W/W16Y/W178Y/W94Y); conditions: F159W-Leuko-PNP-Hx-PO4 system, 25 °C
[6] = target: T2, F159W-Leuko-PNP-PO4; assay: biochemical
[7] = target: T1, F159W-Leuko-PNP; assay: Steady state kinetics, xanthine oxidase coupled assay with inosine as substrate; format: biochemical
[8] = test system: Leuko-PNP; conditions: inosine as substrate; 50 mM KH2PO4, pH 7.4, 25 °C; cited from earlier work
[9] = test system: Native PNP; conditions: inosine as substrate; 50 mM KH2PO4, pH 7.4, 25 °C; cited from earlier work
[10] = test system: Leuko-PNP-PO4; conditions: stopped-flow fluorometry; cited from earlier work
[11] = test system: Leuko-PNP-PO4; conditions: T-jump relaxation kinetics; cited from earlier work
[12] = substrate: OC[C@H]1O[C@@H](n2cnc3c(O)ncnc32)[C@H](O)[C@@H]1O; assay: Steady state kinetics, xanthine oxidase coupled assay with inosine as substrate; format: biochemical, human; conditions: other: inosine as substrate, 50 mM KH2PO4, pH 7.4, 25 °C

Molecule: 4'-deaza-1'-aza-2'-deoxy-1'-(9-methylene)-Immucillin-H [DADMe-ImmH]
- reduction of binding affinity to F159W-Leuko-PNP [1]: ~10 fold
- Ki [2]: 0.012 ± 0.003 nM
- Ki [3]: 0.0085 ± 0.0003 nM

Molecule: O=c1[nH]cnc2nc[nH]c12 [hypoxanthine]
- Kd ([4]; absence of phosphate, 20 mM Tris-Cl): 3300 ± 200 nM
- Kd ([4]; presence of phosphate (50 mM KH2PO4)): 16000 ± 2000 nM
- decrease in fluorescence intensity upon titration ([4]; absence or presence of phosphate (50 mM KH2PO4), λex 295 nm): 3 fold
- k1 [5]: (1.2 ± 0.1) × 10^7 M^−1s^−1
- k−1 [5]: 178 ± 8 s⁻¹
- koff ([6]; read-out: calculated dissociation rate (koff)): 178 ± 8 s⁻¹
- kon ([6]; read-out: rate of association (kon)): 1.2e+07 M⁻¹ s⁻¹

Molecule: Immucillin-H [ImmH]
- reduction of binding affinity to F159W-Leuko-PNP [1]: ~20 fold
- Ki [2]: 0.134 ± 0.012 nM
- Ki [3]: 0.088 ± 0.003 nM

- Km altered, F159W-Leuko-PNP vs native and Trp-free enzymes [7]: ~7 fold
- kcat altered, F159W-Leuko-PNP vs native and Trp-free enzymes [7]: ~2 fold
- overall catalytic efficiency reduced relative to native- and Leuko-PNPs [7]: ~14 fold
Molecule: O=c1[nH]cnc2c1ncn2[C@@H]1O[C@H](CO)[C@@H](O)[C@H]1O [Inosine, inosine]
- effect on fluorescence emission spectrum of the enzyme ([4]; up to ∼100 μM, absence or presence of inorganic sulfate (up to 3 mM)): does not alter the fluorescence emission spectrum
- Km [8]: 50 ± 3 µM
- kcat [8]: 36 ± 1 s⁻¹
- Km [9]: 71 ± 8 µM
- kcat [9]: 44 ± 2 s⁻¹

Molecule: Nc1nc2nc[nH]c2c(=O)[nH]1 [guanine]
- koff [10]: 86 ± 8 s⁻¹
- kon [10]: 2.7 ± 0.1 × 10^7 M^−1s^−1
- koff [11]: 142 ± 36 s⁻¹
- kon [11]: 3.6 ± 0.2 × 10^7 M^−1s^−1

B1: F159W-Leuko-PNP (Homo sapiens; F159W/W16Y/W178Y/W94Y) (protein)
chain: T1 sequence (P00491 1-289 W16Y/W94Y/F159W/W178Y)
- Km [12]: 422 ± 30 µM
- kcat [12]: 22 ± 1 s⁻¹
- kcat/Km [12]: 52000 ± 4000 M⁻¹ s⁻¹
